US5955440A, “Macrolide LHRH antagonists” (Abbott Laboratories, priority 1998, dated 1999)

Target: T1, LHRH rat pituitary receptor (Rattus norvegicus, UniProt P30969)
T1 construct: from tissue; host or cells: rat pituitary
T1 sequence (P30969 1-327): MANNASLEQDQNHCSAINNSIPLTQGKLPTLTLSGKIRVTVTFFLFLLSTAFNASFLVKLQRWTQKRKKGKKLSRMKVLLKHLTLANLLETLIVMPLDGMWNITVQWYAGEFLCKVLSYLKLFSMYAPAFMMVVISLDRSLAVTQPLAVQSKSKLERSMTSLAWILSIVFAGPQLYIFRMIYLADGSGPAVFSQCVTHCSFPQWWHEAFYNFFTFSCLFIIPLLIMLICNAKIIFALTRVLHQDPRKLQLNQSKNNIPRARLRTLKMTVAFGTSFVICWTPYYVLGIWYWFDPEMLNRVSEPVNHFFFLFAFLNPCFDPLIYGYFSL
Experiment: LHRH rat pituitary receptor binding (pKI)
Details: negative logarithm of the equilibrium dissociation constants, Table 1
Description: Representative compounds of the present invention were evaluated in in vitro tests for LHRH rat pituitary receptor binding (pKI) and for LH inhibition from rat pituitary cells for antagonist potency (pA2). The tests employed the methods detailed in F. Haviv, et al. J. Med. Chem., 32: 2340-2344 (1989). The receptor binding affinity (pKI) is the negative logarithm of the equilibrium dissociation constants.

receptor binding affinity (pKI) | SMILES
8.36 | CC[C@H]1OC(=O)[C@H](C)[C@@H](O[C@H]2C[C@@](C)(OC)[C@@H](O)[C@H](C)O2)[C@H](C)[C@@H](O[C@@H]2O[C@H](C)C[C@H](N(C)C3CC(C)C(C)C3)[C@H]2O)[C@](C)(OC)C[C@@H](C)C(=O)[C@H](C)[C@H]2N(CCc3ccc(Cl)c(Cl)c3)C(=O)O[C@]12C (stereo partly shown) [Example 9, 3'-N-Desmethyl-3'-N-(3,4-dimethylcyclopentyl)-11-deoxy-11-[carboxy-(3,4-dichlorophenethylamino)]-6-O-methyl-erythromycin A 11,12-(cyclic carbamate)]

Same assay, conditions: negative logarithm of the equilibrium dissociation constants, Table 1, read-out: receptor binding affinity (pKI) (converted)

Ki | SMILES
7.41 nM | CC[C@H]1OC(=O)[C@H](C)[C@@H](O[C@H]2C[C@@](C)(OC)[C@@H](O)[C@H](C)O2)[C@H](C)[C@@H](O[C@@H]2O[C@H](C)C[C@H](N(C)C3CCSC3)[C@H]2O)[C@](C)(OC)C[C@@H](C)C(=O)[C@H](C)[C@H]2N(CCc3ccc(Cl)c(Cl)c3)C(=O)O[C@]12C (stereo partly shown) [Example 8, 3'-N-Desmethyl-3'-N-(3-tetrahydrothienyl)-11-deoxy-11-[carboxy-(3,4-dichlorophenethylamino)]-6-O-methyl-erythromycin A 11,12-(cyclic carbamate)]
4.37 nM | CC[C@H]1OC(=O)[C@H](C)[C@@H](O[C@H]2C[C@@](C)(OC)[C@@H](O)[C@H](C)O2)[C@H](C)[C@@H](O[C@@H]2O[C@H](C)C[C@H](N(C)CCCc3ccncc3)[C@H]2O)[C@](C)(OC)C[C@@H](C)C(=O)[C@H](C)[C@H]2N(CCc3ccc(F)c(Cl)c3)C(=O)O[C@]12C [Example 81, 3'-N-Desmethyl-3'-N-[3-(4-pyridyl)propyl]-11-deoxy-11-[carboxy-(3-chloro-4-fluorophenethylamino)]-6-O-methyl-erythromycin A 11,12-(cyclic carbamate)]
4.27 nM | CC[C@H]1OC(=O)[C@H](C)[C@@H](O[C@H]2C[C@@](C)(OC)[C@@H](O)[C@H](C)O2)[C@H](C)[C@@H](O[C@@H]2O[C@H](C)C[C@H](N(C)C(C)C)[C@H]2O)[C@](C)(OC)C[C@@H](C)C(=O)[C@H](C)[C@H]2N(CCc3ccc(Cl)c(F)c3)C(=O)O[C@]12C [Example 17, 3'-N-Desmethyl-3'-N-isopropyl-11-deoxy-11-[carboxy-(4-chloro-3-fluorophenethylamino)]-6-O-methyl-erythromycin A 11,12-(cyclic carbamate)]
3.16 nM | CC[C@H]1OC(=O)[C@H](C)[C@@H](O[C@H]2C[C@@](C)(OC)[C@@H](O)[C@H](C)O2)[C@H](C)[C@@H](O[C@@H]2O[C@H](C)C[C@H](N(C)Cc3ccc(OCCO)cc3)[C@H]2O)[C@](C)(OC)C[C@@H](C)C(=O)[C@H](C)[C@H]2N(CCc3ccc(F)c(Cl)c3)C(=O)O[C@]12C [Example 49, 3'-N-Desmethyl-3'-N-(4-hydroxyethoxybenzyl)-11-deoxy-11-[carboxy-(3-chloro-4-fluorophenethylamino)]-6-O-methyl-erythromycin A 11,12-(cyclic carbamate)]
3.09 nM | CC[C@H]1OC(=O)[C@H](C)[C@@H](O[C@H]2C[C@@](C)(OC)[C@@H](O)[C@H](C)O2)[C@H](C)[C@@H](O[C@@H]2O[C@H](C)C[C@H](N(C)C3CCC3)[C@H]2O)[C@](C)(OC)C[C@@H](C)C(=O)[C@H](C)[C@H]2N(CC3(c4ccc(Cl)c(Cl)c4)CC3)C(=O)O[C@]12C [Example 11, 3'-N-Desmethyl-3'-N-cyclobutyl-11-deoxy-11-[carboxy-(α,α-cyclopropyl-3,4-dichlorophenethylamino)]-6-O-methyl-erythromycin A 11,12-(cyclic carbamate)]
7.41 nM | CC[C@H]1OC(=O)[C@H](C)[C@@H](O[C@H]2C[C@@](C)(OC)[C@@H](O)[C@H](C)O2)[C@H](C)[C@@H](O[C@@H]2O[C@H](C)C[C@H](N(C)Cc3ncc[nH]3)[C@H]2O)[C@](C)(OC)C[C@@H](C)C(=O)[C@H](C)[C@H]2N(CCc3ccc(Cl)c(Cl)c3)C(=O)O[C@]12C [Example 63, 3'-N-Desmethyl-3'-N-(2-imidazolyl)methyl-11-deoxy-11-[carboxy-(3,4-dichlorophenethylamino)]-6-O-methyl-erythromycin A 11,12-(cyclic carbamate)]
9.12 nM | CC[C@H]1OC(=O)[C@H](C)[C@@H](O[C@H]2C[C@@](C)(OC)[C@@H](O)[C@H](C)O2)[C@H](C)[C@@H](O[C@@H]2O[C@H](C)C[C@H](N(C)CC3CC3)[C@H]2O)[C@](C)(OC)C[C@@H](C)C(=O)[C@H](C)[C@H]2N(CCc3ccc(Cl)cc3)C(=O)O[C@]12C [Example 37, 3'-N-Desmethyl-3'-N-(cyclopropylmethyl)-11-deoxy-11-[carboxy-(4-chlorophenethylamino)]-6-O-methyl-erythromycin A 11,12-(cyclic carbamate)]
10 nM | CC[C@H]1OC(=O)[C@H](C)[C@@H](O[C@H]2C[C@@](C)(OC)[C@@H](O)[C@H](C)O2)[C@H](C)[C@@H](O[C@@H]2O[C@H](C)C[C@H](N(C)Cc3ccncc3)[C@H]2O)[C@](C)(OC)C[C@@H](C)C(=O)[C@H](C)[C@H]2N(CCc3ccc(Cl)cc3)C(=O)O[C@]12C [Example 34, 3'-N-Desmethyl-3'-N-(4-pyridylmethyl)-11-deoxy-11-[carboxy-(4-chlorophenethylamino)]-6-O-methyl-erythromycin A 11,12-(cyclic carbamate)]
1.78 nM | CC[C@H]1OC(=O)[C@H](C)[C@@H](O[C@H]2C[C@@](C)(OC)[C@@H](O)[C@H](C)O2)[C@H](C)[C@@H](O[C@@H]2O[C@H](C)C[C@H](N(C)C(C)CCc3ccc(O)cc3)[C@H]2O)[C@](C)(OC)C[C@@H](C)C(=O)[C@H](C)[C@H]2N(CCc3ccc(F)c(Cl)c3)C(=O)O[C@]12C (stereo partly shown) [Example 86, 3'-N-Desmethyl-3'-N-(1-methyl)[3-(4-hydroxy)phenyl]propyl-11-deoxy-11-[carboxy-(3-chloro-4fluorophenethylamino)]-6-O-methyl-erythromycin A 11,12-(cyclic carbamate)]
6.31 nM | CC[C@H]1OC(=O)[C@H](C)[C@@H](O[C@H]2C[C@@](C)(OC)[C@@H](O)[C@H](C)O2)[C@H](C)[C@@H](O[C@@H]2O[C@H](C)C[C@H](N(C)Cc3ccncc3)[C@H]2O)[C@](C)(OC)C[C@@H](C)C(=O)[C@H](C)[C@H]2N(CCc3ccc(Cl)c(Cl)c3)C(=O)O[C@]12C [Example 92, 3'-N-Desmethyl-3'-N-(4-pyridylmethyl)-11-deoxy-11-[carboxy-(3,4-dichlorophenethylamino)]-6-O-methyl-erythromycin A 11,12-(cyclic carbamate)]
2.75 nM | CC[C@H]1OC(=O)[C@H](C)[C@@H](O[C@H]2C[C@@](C)(OC)[C@@H](O)[C@H](C)O2)[C@H](C)[C@@H](O[C@@H]2O[C@H](C)C[C@H](N(C)C3CCCC3)[C@H]2O)[C@](C)(OC)C[C@@H](C)C(=O)[C@H](C)[C@H]2N(CCc3cccc(Cl)c3)C(=O)O[C@]12C [Example 24, 3'-N-Desmethyl-3'-N-cyclopentyl-11-deoxy-11-[carboxy-(3-chlorophenethylamino)]-6-O-methyl-erythromycin A 11,12-(cyclic carbamate)]
5.75 nM | CC[C@H]1OC(=O)[C@H](C)[C@@H](O[C@H]2C[C@@](C)(OC)[C@@H](O)[C@H](C)O2)[C@H](C)[C@@H](O[C@@H]2O[C@H](C)C[C@H](N(C)C3CCCC3)[C@H]2O)[C@](C)(OC)C[C@@H](C)C(=O)[C@H](C)[C@H]2N(CCc3ccc(OC)cc3)C(=O)O[C@]12C [Example 40, 3'-N-Desmethyl-3'-N-cyclopentyl-11-deoxy-11-[carboxy-(4-methoxyphenethylamino)]-6-O-methyl-erythromycin A 11,12-(cyclic carbamate)]
7.24 nM | CC[C@H]1OC(=O)[C@H](C)[C@@H](O[C@H]2C[C@@](C)(OC)[C@@H](O)[C@H](C)O2)[C@H](C)[C@@H](O[C@@H]2O[C@H](C)C[C@H](N(C)C3CCCC3)[C@H]2O)[C@](C)(OC)C[C@@H](C)C(=O)[C@H](C)[C@H]2N(CCc3ccc(OC)c(Br)c3)C(=O)O[C@]12C [Example 42, 3'-N-Desmethyl-3'-N-cyclopentyl-11-deoxy-11-[carboxy-(3-bromo-4-methoxyphenethylamino)]-6-O-methyl-erythromycin A 11,12-(cyclic carbamate)]
9.12 nM | CC[C@H]1OC(=O)[C@H](C)[C@@H](O[C@H]2C[C@@](C)(OC)[C@@H](O)[C@H](C)O2)[C@H](C)[C@@H](O[C@@H]2O[C@H](C)C[C@H](N(C)CCCc3ccncc3)[C@H]2O)[C@](C)(OC)C[C@@H](C)C(=O)[C@H](C)[C@H]2N(CCc3ccc(Cl)c(Cl)c3)C(=O)O[C@]12C [Example 76, 3'-N-Desmethyl-3'-N-[3-(4-pyridyl)propyl]-11-deoxy-11-[carboxy-(3,4-dichlorophenethylamino)]-6-O-methyl-erythromycin A 11,12-(cyclic carbamate)]
4.07 nM | CCCN(C)[C@H]1C[C@@H](C)O[C@@H](O[C@@H]2[C@@H](C)[C@H](O[C@H]3C[C@@](C)(OC)[C@@H](O)[C@H](C)O3)[C@@H](C)C(=O)O[C@H](CC)[C@@]3(C)OC(=O)N(CCc4ccc5c(c4)OCCO5)[C@@H]3[C@@H](C)C(=O)[C@H](C)C[C@@]2(C)OC)[C@@H]1O [Example 54, 3'-N-Desmethyl-3'-N-propyl-11-deoxy-11-[carboxy-[3 4-(1,4-dioxano)phenethylamino)]}-6-O-methyl-erythromycin A 11,12-(cyclic carbamate)]
